Source: US20110313041A1 (priority 2008, published 2011)
Where two headings read alike, the source gives them in different places.

Assays:
[1] = test system: smooth muscles of lachrymal gland, bladder, stomach, intestine; assay: response experiment to sublingual/buccal Panthenol under Acetylcholinersterase-inhibition; assay type: in vivo, human; conditions: 2 g Panthenol Tbl. sublingual/buccal
Protocol: Immediately afterwards, response experiment to sublingual/buccal applied 2 g-Panthenol Tbl. was executed. […] After its decay and continuation of the breakfast with bread the same reactions in bladder, womb and bowel 10 minutes later repeated with time shortened duration.
Acetylcholine, the natural excitation transmitter from the nerve to the muscle effects striped muscles in concentrations of 10^−6 g/l, smooth muscles already in concentrations of 10^−16 g/l. (4) These “adverse” reactions are contractions of smooth muscles of lachrymal gland, bladder, stomach, intestine, caused by there suddenly synthesized acetylcholine, which exceeds the Response threshold that is 10^−16 grams per liter of acetylcholine in smooth muscles: • a) within 10 minutes of ingestion into the stomach and after the end of reaction; • b) within 10 minutes of sublingual/buccal absorption of 2000 mg Tbl Panthenol, while Acetylcholinersterase-inhibition amongst 140 mg Neostgminbromid is existing. […] (13)

ACH Esterase = biological target: T1, ACH Esterase (Homo sapiens, UniProt P22303); conditions: 30 mg PB, soldiers, cited from earlier work
T1 construct: endogenous in cells

[2] = cited from earlier work; for side effects: Alzheimer's disease patients; for condition of Alzheimer's disease patients: after administration
[3] = treatment of weakness in metabolic activity with pantothenic acid-CoA; assay type: in vivo, human; conditions: intake in a large amount
Text: The invention is based of the surprising finding of Mr.
Muscle weakness and pain, weakness, respiratory weakness, mental exhaustion, and gastric problems have mainly been treated with pantothenic acid-CoA,-buk, vitamins and amino acids.
After improvement and discontinuation of the treatment the symptoms returned after a short interval. Ultimately, the problems could be reduced and neutralised through re-treatment. Only with the normalization of the function of the digestive tract, the absorption of pantothenic acid-CoA from food in the stomach could be reproduced, and the treatment was dispensable.
Disturbed gastric functions and/or depletion of mitochondrial reserves in Myasthenia, autism, chronic fatigue syndrome appears in the fading of the yellowing of the urine. […] The current optimum, the proof of the success of the pantothenic acid-CoA treatment is reached when harmless acetylcholine surplus reactions responses in the bladder, stomach or intestines occur.

T1 sequence (P22303 32-614): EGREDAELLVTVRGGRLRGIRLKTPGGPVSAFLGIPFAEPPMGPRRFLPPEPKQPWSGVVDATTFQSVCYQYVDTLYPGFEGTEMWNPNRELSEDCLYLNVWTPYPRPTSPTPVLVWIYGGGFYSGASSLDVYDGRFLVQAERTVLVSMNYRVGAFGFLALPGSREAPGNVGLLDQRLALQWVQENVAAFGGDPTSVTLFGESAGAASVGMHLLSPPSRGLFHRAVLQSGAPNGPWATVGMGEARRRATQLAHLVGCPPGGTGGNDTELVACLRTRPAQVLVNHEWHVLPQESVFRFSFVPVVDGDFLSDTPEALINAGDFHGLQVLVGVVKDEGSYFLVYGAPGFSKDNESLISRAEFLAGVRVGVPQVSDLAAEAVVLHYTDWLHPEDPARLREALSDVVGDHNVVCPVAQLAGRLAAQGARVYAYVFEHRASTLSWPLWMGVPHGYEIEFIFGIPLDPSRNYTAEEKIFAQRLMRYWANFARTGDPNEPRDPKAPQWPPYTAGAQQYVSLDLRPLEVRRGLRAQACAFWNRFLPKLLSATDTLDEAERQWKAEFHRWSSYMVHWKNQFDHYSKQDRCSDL

Compound | side effects [2] | condition of Alzheimer's disease patients [2] | effect on symptoms caused by weakness in metabolic activity [3] | further results
CC(C)(CO)[C@@H](O)C(=O)NCCCO [Panthenol] |  |  |  | reaction to first application of Panthenol ([1]; first application, under 140 mg Neostigminbromid): the same adverse reaction started with a similar duration; reaction to anew application of Panthenol ([1]; second application after continued breakfast): the same adverse reaction started, but delayed and lasted for less
CN(C)C(=O)Oc1ccc[n+](C)c1 [Pyridostigminbromid] |  |  |  | adverse cholinergic reactions (ACH Esterase): nausea, vomiting, stomach cramps, diarrhea, urination, increased salivation, sweating and muscle spasm; adverse cholinergic reactions (ACH Esterase; listed as pyridostigmine bromide): nausea, vomiting, abdominal Cramps, diarrhea, increased salivation, sweating, muscle Cramps
CCN(C)C(=O)Oc1cccc([C@H](C)N(C)C)c1 [Rivastigmin] | nausea, vomiting, diarrhea and cramps | improvement of their condition |  | 
Nc1c2c(nc3ccccc13)CCCC2 [Tacrine] | nausea, vomiting, diarrhea and cramps | improvement of their condition |  | 
CC(C)(CO)[C@@H](O)C(=O)NCCC(=O)O [pantothenic acid, Pantothenic acid] |  |  | beneficial effect | 
pantothenic acid-CoA |  |  | beneficial effect | 
